Data as given in patent publication US8173768B2, “Peptides having antimicrobial and neurotrophic activity and uses thereof” (priority 2009, dated 2012).
Bridge positions count the residues as written; N and C are the ends. Square brackets hold non-standard residues; d marks the D form. Ends that are not written are not given here. Peptide text beside a SMILES is read from it. Phe(ol) = N[C@H](CO)Cc1ccccc1; Aib = CC(C)(N)C(=O)O

How the values were obtained:
[1] = pore-forming activity (dissipation of membrane potential in liposomes); type: biochemical
Description: Antimicrobial assays: After each purification step, antibacterial activity was monitored by a solid plate assay as described in previous studies (14). The minimal inhibitory concentration (MIC) and the minimal bactericidal concentration (MBC) were determined according to the method of Hancock (http://cmdr.ubc.ca/bobh/showmethod.php?methodid=79). Permeabilization of bacterial membranes and pore-forming activity were assayed as previously described (Herbst, R et al. (2002), J Biol Chem 277:22353-22360; Leippe, M. et al. 1991. Proc Natl Acad Sci USA 88:7659-7663).
No activity was found towards the Gram negative A. hydrophila at the same concentration. […] Since neuromacin contains four histidine residues in its primary structure (in contrast to none in theromacin), we evaluated the effect of a more acidic pH, at which the histidine residues are protonated, on the membrane-permeabilizing activity (FIG. 5B). […] Similar activity against the Gram-negative representative E. coli was not detected up to a neuromacin concentration of 25 μM (data not shown). We also measured the pore-forming activity of neuromacin to further characterize its mode of action by using a minimalistic membrane system. More precisely, we monitored the dissipation of a membrane potential induced in liposomes composed of azolectin, a crude phospholipid mixture from soy bean.

axotomized nerve cords = test: regeneration of axotomized leech nerve cord ex vivo (time-lapse); design: species or system Hirudo medicinalis; details: native neuromacin 4 μM, aseptic conditions; 4 days without neuromacin
Description: Collection and treatment of the nerve cords: Adult leeches, Hirudo medicinalis species, weighting 2-3 g were purchased from a commercial supplier (Ricarampex, France). Animals were kept in artificial pond water and starved up to 3 weeks before use. Leeches were anaesthetised in 10% ethanol-spring water for 20 min and the nerve cords were removed according to the protocol of Nicholls et al (J Neurophysiol, 1968, 31:740-756.). After three successive baths in antibiotics, cords were placed in Leibowitz-15 (L-15, Gibco) culture medium supplemented with 2% fetal calf serum, 0.6% glucose and gentamicin ([…]) (Nature, 1979, 281:67-69). Connectives between ganglia were injured in a standard manner using a pair of sterilized fine iridectomy scissors. Axotomized nerve cords were separately incubated in L-15 medium containing different microbial components: 3×10^7 CFU/ml of heat killed or live bacteria, 10 μg/ml of polyI:C (Invivogen), 100 μg/ml of zymosan (Invivogen,) and 100 μg/ml of mannane (Invivogen) for different time (t=0 to t=8 days) at room temperature. Incubations without microbial components or bacteria were performed in the same conditions as controls. All the steps were performed under sterile conditions. […]

B. megaterium = test: SYTOX Green membrane permeabilization assay; type: cell-based, Bacillus megaterium
Description: FIG. 5 illustrates membrane permeabilization of B. megaterium induced by neuromacin. Membrane damage of the bacteria was measured fluorometrically using the dye SYTOX Green. […] Antibacterial activity of the peptides is expressed as a percentage of permeabilized bacteria. (A) Time kinetics of membrane permeabilization induced by neuromacin measured for different doses at various incubation periods. (B) Membrane permeabilizing effects of neuromacin (rhombs) in comparison with cecropin P1 (triangles) and magainin II (circles) after 30 min of incubation of B. megaterium with each peptide at various concentrations, at pH 5.2 (open symbols) and at pH 7.4 (closed symbols). […]
(§1) Antimicrobial assays: After each purification step, antibacterial activity was monitored by a solid plate assay as described in previous studies (14). The minimal inhibitory concentration (MIC) and the minimal bactericidal concentration (MBC) were determined according to the method of Hancock (http://cmdr.ubc.ca/bobh/showmethod.php?methodid=79). […]
No activity was found towards the Gram negative A. hydrophila at the same concentration. […] Since neuromacin contains four histidine residues in its primary structure (in contrast to none in theromacin), we evaluated the effect of a more acidic pH, at which the histidine residues are protonated, on the membrane-permeabilizing activity (FIG. 5B). […]

[2] = system: Gram negative A. hydrophila; test: liquid growth inhibition assay; type: cell-based, Aeromonas hydrophila; details: at the same concentration as against M. nishinomiyaensis
Text: Microorganisms: The Gram-positive and Gram-negative bacteria Micrococcus nishinomiyaensis and Aeromonas hydrophila respectively were isolated from the natural environment of Hirudo medicinalis. These bacterial colonies, which are present in the water, were selected from agar plate under aerobic conditions at room temperature using a random isolation grid. The Gram-positive bacteria Bacillus megaterium was used for the SYTOX Green assay.
as §1
No activity was found towards the Gram negative A. hydrophila at the same concentration. […] Since neuromacin contains four histidine residues in its primary structure (in contrast to none in theromacin), we evaluated the effect of a more acidic pH, at which the histidine residues are protonated, on the membrane-permeabilizing activity (FIG. 5B). […] Similar activity against the Gram-negative representative E. coli was not detected up to a neuromacin concentration of 25 μM (data not shown). […]

Row | Compound | pore-forming activity ([1]; positive control at 50 nM (data not shown)) | start of reconnection post-axotomy (axotomized nerve cords) | activity relative to cecropin P1 and magainin II (B. megaterium; B. megaterium, within the measurement period) | efficacy to induce membrane lesions, effect of pH (B. megaterium; pH 5.2 versus pH 7.4, FIG. 5B) | activity towards A. hydrophila [2] | pore-forming activity ([1]; final concentrations up to 2 μM (data not shown))
1 | CC(=O)NC(C)(C)C(=O)N1CCC[C@H]1C(=O)NC(C)(C)C(=O)N[C@@H](C)C(=O)NC(C)(C)C(=O)N[C@@H](C)C(=O)N[C@@H](CCC(N)=O)C(=O)NC(C)(C)C(=O)N[C@H](C(=O)NC(C)(C)C(=O)NCC(=O)N[C@@H](CC(C)C)C(=O)NC(C)(C)C(=O)N1CCC[C@H]1C(=O)N[C@H](C(=O)NC(C)(C)C(=O)NC(C)(C)C(=O)N[C@@H](CCC(=O)O)C(=O)N[C@@H](CCC(N)=O)C(=O)N[C@H](CO)Cc1ccccc1)C(C)C)C(C)C [alamethicin, reference compound] (Ac-[Aib]P[Aib]A[Aib]AQ[Aib]V[Aib]GL[Aib]PV[Aib][Aib]EQ[Phe(ol)]) | very strong signal |  |  |  |  | 
2 | H-DCYEDWSRCTPGTSFLTGILWKDCHSRCKELGHRGGRCVDSPSKHCPGVLKNNKQCHCY (disulfide 2-46, 9-38, 24-56, 28-58) [neuromacin] |  | less than 24 hours | over one order of magnitude lower | weaker at pH 5.2 than at pH 7.4 | No activity | not detected
